In publication PMC10530836, “Synthesis, Molecular Docking, and Biological Evaluation of Novel Anthranilic Acid Hybrid and Its Diamides as Antispasmodics” (International Journal of Molecular Sciences, 2023):

Legend:
Type in all cases: cell-based
[1] = test system: Gram-positive bacteria, Gram-negative bacteria, yeasts and fungi; assay: Antimicrobial activity, whole panel; conditions: agar well diffusion
Method: In our experiments, six Gram-positive bacteria, six Gram-negative bacteria, two yeasts, and six fungi were used. The hybrid molecule and its diamides were tested in vitro for their antimicrobial activity against human pathogenic bacteria and economically relevant phytopathogenic fungi. The inhibition zones of bacterial and fungal growth caused by the novel compounds are outlined in Table 3. The obtained results were compared to a known antispasmodic mebeverine and its precursors. […]
The antimicrobial activity of the samples was determined by the agar well diffusion method. […]
The inocula of the tested bacteria/yeasts was prepared by homogenization of a small amount of biomass in 5 mL of sterile 0.5% NaCl. […] The number of viable cells and fungal spores was determined using a bacterial counting chamber Thoma (Poly-Optik, GmbH, Bad Blankenburg, Germany). […] Next, the inoculated media were transferred in a quantity of 18 mL in sterile Petri plates (d = 90 mm) (Gosselin™, Hazebrouck, France) and allowed to harden. […]
The antimicrobial activity was determined by measuring the diameter of the inhibition zones around the wells on the 24th and 48th h of incubation. […]

[2] = test system: Fusarium moniliforme ATCC 38932; assay: Antimicrobial activity, agar well diffusion; conditions: Dose 0.6 mg/disk, dwell = 6 mm
Text: (§1) Twenty tested microorganisms including six Gram-positive bacteria (Bacillus subtilis ATCC 6633, Bacillus amyloliquefaciens 4BCL-YT, Staphylococcus aureus ATCC 25923, Listeria monocytogenes NBIMCC 8632, Enterococcus faecalis ATCC 19433), six Gram-negative bacteria (Salmonella enteritidis ATCC 13076, Klebsiella sp.—clinical isolate, Escherichia coli ATCC 25922, Proteus vulgaris ATCC 6380, Pseudomonas aeruginosa ATCC 9027), two yeasts (Candida albicans NBIMCC 74, Saccharomyces cerevisiae ATCC 9763), and six fungi (Aspergillus niger ATCC 1015, Aspergillus flavus, Penicillium sp., Rhizopus sp., Mucor sp.—plant isolates, Fusarium moniliforme ATCC 38932) from the collection of the Department of Microbiology at the University of Food Technologies—Plovdiv, Bulgaria, were selected for the antimicrobial activity test. The antimicrobial activity of the samples was determined by the agar well diffusion method. The tested bacteria B. subtilis and B. amyloliquefaciens were cultured on LBG agar at 30 °C. The test bacteria S. aureus, L. monocytogenes, E. faecalis, S. enteritidis, Klebsiella sp., E. coli, P. vulgaris, and P. aeruginosa were cultured on LBG agar at 37 °C for 24 h. The yeast C. albicans was cultured on MEA at 37 °C, while S. cerevisiae was cultured on MEA at 30 °C for 24 h. The fungi A. niger, A. flavus, Penicillium sp., Rhizopus sp., Mucor sp., and F. moniliforme were grown on MEA at 30 °C for 7 days or until sporulation. The inocula of the tested bacteria/yeasts was prepared by homogenization of a small amount of biomass in 5 mL of sterile 0.5% NaCl. The inocula of tested fungi were prepared by the addition of 5 mL of sterile 0.5% NaCl into the tubes. After stirring by vortex V-1 plus (Biosan), they were filtered and replaced in other tubes before use. The number of viable cells and fungal spores was determined using a bacterial counting chamber Thoma (Poly-Optik, GmbH, Bad Blankenburg, Germany). Their final concentrations were adjusted to 10^8 cfu/mL for bacterial/yeast cells and 10^5 cfu/mL for fungal spores and then inoculated in preliminarily melted and tempered at 45–48 °C LBG/MEA agar media. Next, the inoculated media were transferred in a quantity of 18 mL in sterile Petri plates (d = 90 mm) (Gosselin™, Hazebrouck, France) and allowed to harden. Then, six wells (d = 6 mm) per plate were cut, and triplicates of 60 μL of each extract were pipetted into the agar wells. The Petri plates were incubated in identical conditions. The antimicrobial activity was determined by measuring the diameter of the inhibition zones around the wells on the 24th and 48th h of incubation. Tested microorganisms with inhibition zones of 18 mm or more were considered sensitive; moderately sensitive were those in which the zones were from 12 to 18 mm; resistant were those in which the inhibition zones were up to 12 mm or completely missing.

[3] = test system: Candida albicans NBIMCC 74; assay: Antimicrobial activity, agar well diffusion; conditions: Dose 0.6 mg/disk, dwell = 6 mm
Text: as §1

[4] = test system: Mucor sp.; assay: Antimicrobial activity, agar well diffusion; conditions: Dose 0.6 mg/disk, dwell = 6 mm
Text: as §1

[5] = test system: Saccharomyces cerevisiae ATCC 9763; assay: Antimicrobial activity, agar well diffusion; conditions: Dose 0.6 mg/disk, dwell = 6 mm
Text: as §1

Nc1ccccc1C(=O)NCCc1cccc(Cl)c1 [Compound 3, 2-amino-N-(3-chlorophenethyl)benzamide]
antimicrobial activity (overall, in words) [1]: very good antimicrobial activity
Inhibition Zones [2]: 15 mm
Inhibition Zones [3]: 15 mm
Inhibition Zones [4]: 15 mm
Inhibition Zones [5]: 15 mm
